Results: article PMC4862498, “PI4 Kinase Is a Prophylactic but Not Radical Curative Target in Plasmodium vivax-Type Malaria Parasites” (Antimicrobial Agents and Chemotherapy, 2016)

Set-up: species or system CD-1 mice
Settings: mouse, in vivo
Protocol: Details of in vivo PK studies of KDU691 and LMV599 in CD-1 mice and monkeys can be found in the supplemental material.
Clinical chemistry and hematology
For the clinical analysis serum from 1 mL of clotted blood was analysed using the Cobas Integra 400 plus fully automated chemistry analyser. The following clinical parameters were determined: Alkaline phosphatase; Alanine Aminotransferase; Albumin: Aspartate aminotransfeasr; Bilirubin; Calcium; Cholesterol; Creatine kinase; Creatinine; C-reactive protein: Iron; Phosphate; Gamma-glutamyl transpeptidase; Glucose; Hemoglobin; Potassium; Lactate dehydrogenase; Sodium; Total protein; Urea Haematological parameters were determined from 1 mL EDTA-blood with a Sysmex XT-2000iV automated system. The following hematological parameters were determined: Basophilic granulocytes; Eosinophilic granulocytes; Erythrocytes; Hematocrit; Leucocytes; Leucocyte differentiation; Lymphocytes; Mean corpusculair hemoglobin; Mean corpusculair hemoglobin concentration; Mean corpusculair volume; Neutrophilic granulocytes; Red cell distribution width; Thrombocytes […]
For LC/MS/MS analysis, 50 µL of plasma samples were precipitated using 180 µL of acetonitrile:methanol:acetic acid (90:9.8:0.2) containing either related compound or warfarin as internal standard. After vortexing and centrifuging the mixture, the supernatant was removed and 5 µL of sample analyzed. […] In addition, quality control samples with three different concentrations were prepared in respective blank matrix and analyzed together with the unknown samples for validation purposes. Analyte quantitation was performed by LC/MS/MS using optimized conditions for each compound. […]
B), 3.92 – 4.0 min (85 – 35 % B) and 4.0 – 4.75 min (35 % B), with a flow rate of 1.0 mL/min, and a run time of 4.75 min. […] The most intense MRM transition (420.2/269) was used for quantitation using electrospray ionization in the positive mode. […]

SMILES: CNC(=O)c1ccc(-c2cnc3cnc(C(=O)N(C)c4ccc(Cl)cc4)cn23)cc1 [KDU691]
- compound partitioning in the liver, Cmax over plasma: 1.7 ×
- compound partitioning in the liver, exposure over plasma: 3.1 ×
- F (oral bioavailability) (po, 25 mg/kg): 60%
